Residues, ends and D or L forms follow the SMILES beside them.
How the values were obtained:
DocSTm [1] = assay: Dot blot phosphorylation assay (EF-Tu phosphorylation by Doc); assay type: biochemical, S. Typhimurium; settings: DocSTm 1 μM, EF-TuSTm 3 μM, ATP 1 mM; for inhibition of EF-TuSTm phosphorylation by DocSTm (in words): α-pThr, inhibitor 10 μM to 5 nM (3-fold dilutions), 16 h at RT
Protocol: Samples were prepared to a final volume of 10 μL. […] Samples were incubated for 16 h at RT and subsequently spotted on a nitrocellulose membrane. Phosphorylated EF-Tu was detected by immunodecoration using a rabbit monoclonal antiphosphothreonine antibody (Abcam, ab218195) at 1:2000 dilution (1 h at 4 °C), followed by incubation with a goat antirabbit IgG (H+L) HRP conjugate antibody (Advansta) at 1:10 000 dilution (1 h at RT). Chemiluminescence was developed using the HRP Luminata kit (Merck, WBLUR0100) and captured by an ImageQuant LAS4000 Western blot imaging system (Cytiva).

DocSTm [2] = assay: Surface plasmon resonance binding to immobilised Doc; design: species or system S. Typhimurium; settings: for koff × 10^-6 / kon × 10^6: 1:1 kinetic fit, mean ± SD of at least 3 replicates; for kon × 10^6: single-cycle kinetics (multicycle for PhdSTm1-73); for Half-life of the complex: t1/2 = ln2 / koff
Procedure, shortened: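 Binding constants are means ± SD of at least three replicates: steady-state Kd directly, or Kd calculated from kinetic kon and koff. Sensorgrams were double-referenced and fitted 1:1 after 80 s analyte injections (30 μL/min), either multicycle or single-cycle, over NTA-immobilised Doc. Running buffer was HEPES/500 mM NaCl/EDTA/Tween pH 8.0 at 22 °C.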

DocSTm [3] = assay: Differential scanning fluorimetry (thermal stabilisation of Doc); assay type: binding, S. Typhimurium; settings: for melting temperature shift ΔTm: DSF, DocSTm 5 μM, analyte 50 μM, Tm with analyte minus Tm of free DocSTm (42.9 ± 0.9 °C), SYPRO Orange, 20 mM K2HPO4, 50 mM (NH4)2SO4, pH 8.0, triplicate; for Average Tm / Tm: DocSTm 5 µM + 50 µM binder; for Average Tm: average of 3 replicates
Procedure, shortened: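 Tm values come from fitting the sigmoidal melt region to a Boltzmann function. Doc (5 μM final) was ramped 25–95 °C with SYPRO Orange (3× final) in pH 8.0 buffer of 20 mM K2HPO4 and 50 mM (NH4)2SO4; each condition in triplicate.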

[4] = test system: S. Typhimurium (14028) Δphd-doc::Km strains coexpressing DocSTm; assay: Growth rescue experiment in S. Typhimurium; assay type: cell-based; settings: coexpression of DocSTm (pBAD33, arabinose) and Phd construct (pCA24N, basal expression); OD600 over time, M9 minimal medium; average of three independent experiments
Protocol: The cotransformations above were also performed with an empty pBAD33 plasmid, as a control for the absence of DocSTm expression.
For the growth rescue experiment, overnight (1% tryptone, 0.5% yeast extract, 0.5% NaCl, 1% glucose, 100 μg/mL of carbenicillin, and 34 μg/mL of chloramphenicol) cultures of the generated S. Typhimurium strains were diluted to an OD600 of approximately 0.006 into fresh M9 minimal medium supplemented with 0.5% or 1% arabinose, 0.4% glycerol, 0.4% casamino acids, 100 μg/mL of carbenicillin, and 34 μg/mL of chloramphenicol. Cell growth at a given time was monitored at OD600 with a Genesys 140 Visible Spectrophotometer (Thermo Scientific).

Compound	concentration at which EF-TuSTm phosphorylation is fully inhibited (DocSTm [1]) [µM]	inhibition of EF-TuSTm phosphorylation by DocSTm (in words) (DocSTm [1])	Kd (DocSTm [2]; SPR kinetic fit, replicate 1) [pM]	Kd (DocSTm [2]; SPR kinetic fit, replicate 2) [pM]	Kd (DocSTm [2]; SPR kinetic fit, replicate 3) [pM]	Kd (DocSTm [2]; SPR kinetic fit, replicate 4) [pM]	koff × 10^-6 (DocSTm [2]; SPR, 22 °C, pH 8.0)	kon × 10^6 (DocSTm [2]; SPR, 22 °C, pH 8.0)	Half-life of the complex (DocSTm [2]) [h]	melting temperature shift ΔTm (DocSTm [3]) [°C]	Average Tm (DocSTm [3]) [°C]	Tm (DocSTm [3]; replicate 1) [°C]	Tm (DocSTm [3]; replicate 2) [°C]	Tm (DocSTm [3]; replicate 3) [°C]	rescue of Salmonella growth from DocSTm-induced growth inhibition (in words) [4]	improvement in koff compared with 1 (DocSTm [2]; SPR) [fold]	improvement in kon compared with 1 (DocSTm [2]; SPR) [fold]	gain of affinity compared to peptide 1 (DocSTm [2]; SPR Kd relative to peptide 1)	Kd (DocSTm [2]; SPR, kinetic fit, KD calculated from mean koff and kon, SD propagated, 22 °C, pH 8.0) [pM]
CC[C@H](C)[C@H](NC(=O)[C@H](C)NC(=O)[C@H](C)NC(=O)[C@H](Cc1ccccc1)NC(=O)[C@H](CCC(=O)O)NC(=O)[C@H](CC(=O)O)NC(=O)[C@H](CC(=O)O)NC(=O)[C@H](CCSC)NC(=O)[C@H](Cc1c[nH]c2ccccc12)NC(C)=O)C(=O)N[C@@H](CCSC)C(=O)N[C@@H](C)C(=O)N[C@H](C(=O)N[C@@H](Cc1c[nH]cn1)C(=O)NCC(=O)N[C@@H](CC(N)=O)C(=O)N[C@@H](CCC(=O)O)C(=O)N[C@@H](CC(C)C)C(=O)N[C@@H](CCCNC(=N)N)C(=O)N[C@@H](CCC(=O)O)C(=O)N[C@@H](CC(C)C)C(=O)N[C@@H](C)C(=O)N[C@@H](CC(=O)O)C(=O)N[C@@H](CCCCN)C(=O)O)C(C)C [peptide 1] (Ac-WMDDEFAAIMAVHGNELRELADK-OH)	≥ 1	comparable inhibition of the kinase activity	73.4	83.8	59.1	81.9	91 ± 11 ×10^-6 s-1	1.250 ± 0.259 ×10^6 M-1 s-1	2.1 ± 0.3	28.8 ± 0.9	71.7 ± 0.1	71.8	71.5	71.6	only rescued growth after a delay and longer incubation times of 16–18 h	–	–	–	–
CC[C@H](C)[C@H](NC(=O)[C@H](C)NC(=O)[C@H](C)NC(=O)[C@H](Cc1ccccc1)NC(=O)[C@H](CCC(=O)O)NC(=O)[C@H](CC(=O)O)NC(=O)[C@H](C)NC(=O)[C@H](CCSC)NC(=O)[C@H](Cc1c[nH]c2ccccc12)NC(C)=O)C(=O)N[C@@H](CCSC)C(=O)N[C@@H](C)C(=O)N[C@H](C(=O)N[C@@H](Cc1c[nH]cn1)C(=O)NCC(=O)N[C@@H](CC(N)=O)C(=O)N[C@@H](CCC(=O)O)C(=O)N[C@@H](CC(C)C)C(=O)N[C@@H](CCCNC(=N)N)C(=O)N[C@@H](CCC(=O)O)C(=O)N[C@@H](CC(C)C)C(=O)N[C@@H](C)C(=O)N[C@@H](CC(=O)O)C(=O)N[C@@H](CCCCN)C(=O)O)C(C)C [peptide 3] (Ac-WMADEFAAIMAVHGNELRELADK-OH; C-terminus assumed)	–	inhibited DocSTm at similar concentrations to peptide 1	12.1	16.6	9.92	–	65 ± 18 ×10^-6 s-1	5.073 ± 0.369 ×10^6 M-1 s-1	2.9 ± 0.8	25.6 ± 0.9	68.5 ± 0.3	68.3	68.4	68.8	a faster recovery was achieved	~1.5	~4	greater than 5 fold	13
